Structures can show the parent of a compound that is named as a salt.
Key:
[1] = test system: WT HBV (genotype D isolate, precore G1896A background); assay: Antiviral testing in HepG2 cells transduced with recombinant HBV/baculovirus, wild type; assay type: cell-based, hepatitis B virus; conditions: none (WT) polymerase; area under dose-response curve; values set to 1.0 (relative to WT)
Procedure: (§1) The sensitivity/resistance profile of HBV mutants to adefovir, tenofovir and other antiviral agents was examined in vitro using recombinant HBV/baculovirus. The procedure for analysing the resistance profile is outlined in the following Examples 7-14.
(§2) Sf21 insect cells were maintained in supplemented Grace's insect medium further supplemented with 10% v/v heat-inactivated fetal bovine serum (Gibco BRL, Gaithersburg, Md.) in humidified incubator at 28 C with CO2. HepG2 cells were maintained in minimal essential medium supplemented with 10% v/v heat-inactivated fetal bovine serum (MEM-FBS). HepG2 cells were grown in humidified 37° C. incubators at 5% v/v CO2.
(§3) The recombinant HBV/baculovirus system used for antiviral testing has been previously described (Delaney et al., Antimicrob Agents Chernother 45(6): 1705-[…], 2001). In brief, the recombinant transfer vector was created by excising a fragment containing the 1.3× HBV genome construct and cloning it into the multiple cloning region of a baculovirus vector pBlueBac4.5 (Invitrogen, Carlsbad, Calif.). Point mutations were created by site directed mutagenesis using the commercial kits according to the manufacturers specifications (QuikChange, Stratagene). The nucleotide sequence of the plasmid and the point mutations generated by site directed mutagenesis were confirmed by sequencing using the ABI Prism Big Dye Terminator Cycle Sequencing Ready Reaction Kit according to the manufacturer's specifications (Perkin Elmer, Cetus Norwalk, Conn.). The panel of HBV mutants was generated from a wild type (WT) genotype D HBV isolate by site-directed mutagenesis. Mutants encoded either WT HBV polymerase or polymerase with the amino acid substitutions listed in Table 8 in an HBeAg negative (precore [PC] G1896A mutant) background. Other HBV mutants can be made and tested for antiviral sensitivity in a similar manner.
(§4) Purified recombinant transfer vector and linear AcMNPV baculovirus DNA were co-transfected into Sf21 cells using the BacNBlue transfection kit from Invitrogen (Carlsbad, Calif.); recombinant viruses were isolated by plaque assay according to the manufacturer's instructions. A series of recombinant viruses were amplified from isolated plaques by infecting 100-mm dishes of Sf21 cells. Viral DNA was extracted from amplified viruses using standard procedures. Purified viral DNA was digested with restriction enzymes and then fractionated by electrophoresis in a 1% […] agarose gel. Southern blotting was performed to determine which virus isolates contained the intact 1.3 HBV construct. A Boehringer Mannheim Random Prime DNA Labeling kit (Indianapolis, Ind.) was used to generate [P^32]-radiolabeled probes. A full-length double-stranded HBV genome was used as a template for all radiolabeled probes. Viral DNA sequence was confirmed by PCR amplification and sequencing of the polymerase catalytic region.
(§5) Baculoviruses were amplified by infecting suspension cultures of Sf21 cells in log phase at a multiplicity of infection (moi) of 0.5 pfu/cell. […] Virions were concentrated from infected Sf21 medium by centrifugation at 80,000×g and purified through a 20-60% w/v sucrose gradient. Purified virus was titrated in quadruplicate in Sf21 cells by end-point dilution. An aliquot of each high titer stock was used for DNA extraction. The polymerase gene was amplified and sequenced to confirm the presence of the site-directed mutagenesis.
(§6) HepG2 cells were seeded at approximately 20-40% confluency and then were grown for 16-24 hours before infection. On the day of infection, triplicate plates of cells were trypsinized, and viable cell number was determined with a hemocytometer using Trypan blue exclusion. Average cell counts were calculated and used to determine the volume of high-titer viral stock necessary to infect cells at the indicated moi. HepG2 cells were washed one time with serum-free MEM to remove traces of serum. […]

[2] = test system: HBV mutant L180M quad (rt L180M, T184G, S202I, M204V); assay: Antiviral testing in HepG2 cells transduced with recombinant HBV/baculovirus, L180M quad mutant; assay type: cell-based, hepatitis B virus; conditions: area under dose-response curve, value relative to WT = 1.0
Procedure: as §1, §2, §3, §4, §5, §6

[3] = test system: HBV mutant V173L triple (rt V173L, L180M, M204V); assay: Antiviral testing in HepG2 cells transduced with recombinant HBV/baculovirus, V173L triple mutant; assay type: cell-based, hepatitis B virus; conditions: area under dose-response curve, value relative to WT = 1.0
Procedure: as §1, §2, §3, §4, §5, §6

HBV = conditions: 30 mg daily dose, over 12 weeks, phase II studies; cited from earlier work
[4] = test system: HBV mutant L180M double (rt L180M, M204V); assay: Antiviral testing in HepG2 cells transduced with recombinant HBV/baculovirus, L180M double mutant; assay type: cell-based, hepatitis B virus; conditions: area under dose-response curve, value relative to WT = 1.0
Procedure: as §1, §2, §3, §4, §5, §6

Row | Compound | AUC [1] | AUC [2] | AUC [3] | mean decrease in viremia (HBV) [log10] | AUC [4]
1 | CC(C)(C)C(=O)OCOP(=O)(COCCn1cnc2c(N)ncnc21)OCOC(=O)C(C)(C)C [ADV, adefovir dipivoxil] | 1.0 | 1.3 | 0.4 | 4 | 1.7
2 | C=C1[C@H](CO)[C@@H](O)C[C@@H]1n1cnc2c(=O)[nH]c(N)nc21 [ETV, entecavir] | 1.0 | 242.7 | 47.5 | – | 215.9
3 | Nc1nc(=O)n([C@@H]2CS[C@H](CO)O2)cc1F [FTC, (−)-β-L-2′-3′-dideoxy-5-fluoro-3′-thiacydidine] | 1.0 | 464.4 | 1200.0 | – | 761.4
4 | Cc1cn([C@@H]2C[C@@H](O)[C@H](CO)O2)c(=O)[nH]c1=O [L-dT] | 1.0 | 21.1 | 12.7 | – | 13.7
5 | Nc1ccn([C@@H]2CS[C@H](CO)O2)c(=O)n1 [LMV, (−)-β-2′-deoxy-3′-thiacytidine] | 1.0 | 603.4 | 625.3 | – | 363.1
6 | CC(C)OC(=O)OCOP(=O)(CO[C@H](C)Cn1cnc2c(N)ncnc21)OCOC(=O)OC(C)C [TFV, tenofovir disoproxil fumarate] | 1.0 | 4.2 | 2.3 | – | 2.1

Source: patent US8367317B2, “Variants of hepatitis B virus with resistance to anti-viral nucleoside agents and applications thereof” (Melbourne Health; St. Vincent's Hospital Melbourne; Austin …, priority 2005, dated 2013)
